Test results reported in patent publication US8618178B2, “Method and substances for treating T-cell mediated autoimmune diseases” (Eberhard-Karls-Universitaet Tuebingen Universitaetsklinikum, priority 2006, dated 2013).

What was measured:
Type in all cases: cell-based, mouse
IL-10 = IL-10 production by DC, ELISA of culture supernatants; conditions: GSH-OEt added to DMF
Description: (§1) IL-4, IL-10, IL-12 and interferon-γ were determined using the ELISA (enzyme linked immunosorbent assay) set or with the use of individual components from BD BioSciences. IL-23 in the supernatant was determined using the ELISA set (eBioscience). For intracytoplasmic cytokine analyses, the T cells were restimulated with PMA/ionomycin or with APC and peptide in the presence of brefeldin A, then fixed and permeabilized and stained. For the surface staining, anti-CD4 or KJ1-26 antibodies were used; the cytokine antibodies (PE labeled) were all obtained from BD Pharmingen.
As antigen presenting cells (APC), T cell depleted spleen cells from syngenic mice were used. Dendritic cells (DC) which were obtained from bone marrow (BMDC) and cultured with GM-CSF were used for the relevant experiments on day 7 of culturing. For the experiment, in each case an equal number of APC were cultured either with the medium alone, with L-BSO (C8H18N2O3S, 0.5 mM), dimethyl sulfoxide DMSO(C2H6OS), dimethyl fumarate DMF (C6H8O4, dissolved in DMSO, 70 μM), or calcium monomethyl fumarate (MMF; CaC10H10O8, 200 μM). […] At the respective stated times (see below) the cells were either analyzed directly for their GSH content, used for T cell stimulation or stimulated for […] with Escherichia coli lipopolysaccharides 055.B5 (Sigma-Aldrich) or CpG-DNA 1668 (MWG Biotech) and IL-4 (Stratmann). […]

IL-12 = IL-12 production by DC, ELISA of culture supernatants; conditions: for effect on IL-12 suppression caused by GSH depletion in DC: exogenous addition, 1 mM
Description: as §1
As antigen presenting cells (APC), T cell depleted spleen cells from syngenic mice were used. Dendritic cells (DC) which were obtained from bone marrow (BMDC) and cultured with GM-CSF were used for the relevant experiments on day 7 of culturing. For the experiment, in each case an equal number of APC were cultured either with the medium alone, with L-BSO (C8H18N2O3S, 0.5 mM), dimethyl sulfoxide DMSO(C2H6OS), dimethyl fumarate DMF (C6H8O4, dissolved in DMSO, 70 μM), or calcium monomethyl fumarate (MMF; CaC10H10O8, 200 μM). All substances except for MMF (Fumapharm) were purchased from Sigma-Aldrich. At the respective stated times (see below) the cells were either analyzed directly for their GSH content, […] 055.B5 (Sigma-Aldrich) or CpG-DNA 1668 (MWG Biotech) and IL-4 (Stratmann). In order to raise the GSH level again, 1 mM GSH-OEt (C12H21N3O6S; Sigma-Aldrich) or 1 mM NAC (Sigma-Aldrich) was added.

BMDC = experiment: Measurement of reactive oxygen species (ROS) in DC with dichlorofluorescein, flow cytometry; conditions: for effect on DMF-induced ROS increase in DC: added to DMF, 1 mM
Description: For the measurement of reactive oxygen species (ROS) in DC and APC, the fluorescent dye 2′,7′ dichlorofluorescein (H2 DCFDA, Molecular Probes, Eugene, USA) was used. 5×10^5 DC were preincubated in 1 ml of RPMI medium (without mercaptoethanol) for 60 mins at 37° C. in the incubator with 1% DMSO or 10 μg/ml DMF+/−NAC (1 mM) or GSX (1 mM). After this preincubation, 1 μM/ml H2 DCFDA was added and the cells incubated for a further 30 mins at 37° C. Within one hour, the fluorescence produced was detected using flow cytometry (FL1).
(§2) As antigen presenting cells (APC), T cell depleted spleen cells from syngenic mice were used. Dendritic cells (DC) which were obtained from bone marrow (BMDC) and cultured with GM-CSF were used for the relevant experiments on day 7 of culturing. For the experiment, in each case an equal number of APC were cultured either with the medium alone, with L-BSO (C8H18N2O3S, 0.5 mM), dimethyl sulfoxide DMSO(C2H6OS), dimethyl fumarate DMF (C6H8O4, dissolved in DMSO, 70 μM), or calcium monomethyl fumarate (MMF; CaC10H10O8, 200 μM). All substances except for MMF (Fumapharm) were purchased from Sigma-Aldrich. At the respective stated times (see below) the cells were either analyzed directly for their GSH content, used for T cell stimulation or stimulated for […] with Escherichia coli lipopolysaccharides 055.B5 (Sigma-Aldrich) or CpG-DNA 1668 (MWG Biotech) and IL-4 (Stratmann). In order to raise the GSH level again, 1 mM GSH-OEt (C12H21N3O6S; Sigma-Aldrich) or 1 mM NAC (Sigma-Aldrich) was added.
For testing the potential of pharmaceutical substances to induce the ROS, the following procedure was developed: for the measurement of reactive oxygen species (ROS) in cells, the fluorescent dye 2′,7′ dichlorofluorescein (H2 DCFDA) is used. The absorption spectrum of the substance is 492-495 nm and the emission spectrum lies in the range between 517-527 nm. On induction of cell stress, e.g., by the administration of ROS-causing reagents, oxidation of the H2 DCFDA to DCFDA+H2 occurs. The fluorescence arising as a result can be detected using flow cytometry (FL1).

IL-23 = IL-23 production by DC, ELISA of culture supernatants; conditions: GSH-OEt added to DMF
Description: as §1
as §2, with “added. The GSH reservoirs in mice were depleted by feeding with DMF or MMF, and in man by treatment with Fumaderm®.” for “added.”

Structure (SMILES)	IL-10 production in DC, added to DMF (IL-10)	effect on IL-12 suppression caused by GSH depletion in DC (IL-12)	effect on DMF-induced ROS increase in DC (BMDC)	IL-23 production in DC, added to DMF (IL-23)	IL-12 production by DC (IL-12; after stimulation with LPS)	intracellular ROS in DC (BMDC; dichlorofluorescein, flow cytometry)
CCOC(=O)CNC(=O)[C@H](CS)NC(=O)CC[C@H](N)C(=O)O [GSH-OEt, GSH ethyl ester]	decreased IL-10 production	neutralized the IL-12 suppression	completely neutralized	restored IL-23 production	–	–
OO [H2O2, hydrogen peroxide]	–	–	–	–	lower the production of IL-12	induction of ROS
CC(=O)N[C@@H](CS)C(=O)O [NAC, N-acetylcysteine]	–	same effects as GSH-OEt	completely neutralized	–	–	–
